Among the data in ChEMBL document CHEMBL1149368, “1-Aminomethylbenzocycloalkanes: conformationally restricted hallucinogenic phenethylamine analogues as functionally selective 5-HT2A receptor agonists” (J Med Chem, 2006) are Ki and EC50 values, retold here.

In assay [1] the target is 5-hydroxytryptamine receptor 2A (Homo sapiens, UniProt P28223).
Description: Displacement of (+/-)-[125I]DOI from human cloned 5HT2A receptor
Assay [2] concerns the target T1, 5-hydroxytryptamine receptor 2A (Rattus norvegicus, UniProt P14842).
Description: Displacement of (+/-)-[125I]DOI from rat cloned 5HT2A receptor
For assay [3], the target named is T1, 5-hydroxytryptamine receptor 2A. As to the kind of experiment: Activity at rat 5HT2A receptor expressed in NIH3T3 cells assessed as stimulation of phospholipase C-mediated IP production. The format is functional, cell-based.

A word on the Ki: it is the dissociation constant of the complex between target and ligand, obtained from inhibition or displacement. The low end stands for tighter binding, the high end for weaker binding. As a reminder, the EC50 is the concentration needed to bring the measured effect to its halfway point.

T1 sequence (P14842 whole entry): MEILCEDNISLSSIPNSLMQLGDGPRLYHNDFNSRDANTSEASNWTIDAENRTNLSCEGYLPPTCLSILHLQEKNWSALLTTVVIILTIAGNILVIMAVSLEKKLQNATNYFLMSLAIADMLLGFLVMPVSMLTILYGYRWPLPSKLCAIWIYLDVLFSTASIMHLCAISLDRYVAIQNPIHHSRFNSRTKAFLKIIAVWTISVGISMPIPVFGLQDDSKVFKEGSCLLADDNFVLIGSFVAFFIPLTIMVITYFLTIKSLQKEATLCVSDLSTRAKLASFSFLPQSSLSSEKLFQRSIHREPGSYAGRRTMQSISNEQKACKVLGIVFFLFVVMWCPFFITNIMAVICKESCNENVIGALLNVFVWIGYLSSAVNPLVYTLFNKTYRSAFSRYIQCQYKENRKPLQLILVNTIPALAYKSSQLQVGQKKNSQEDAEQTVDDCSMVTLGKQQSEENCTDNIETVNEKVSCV
Sequence of 5-hydroxytryptamine receptor 2A (Homo sapiens, UniProt P28223) (P28223 whole entry): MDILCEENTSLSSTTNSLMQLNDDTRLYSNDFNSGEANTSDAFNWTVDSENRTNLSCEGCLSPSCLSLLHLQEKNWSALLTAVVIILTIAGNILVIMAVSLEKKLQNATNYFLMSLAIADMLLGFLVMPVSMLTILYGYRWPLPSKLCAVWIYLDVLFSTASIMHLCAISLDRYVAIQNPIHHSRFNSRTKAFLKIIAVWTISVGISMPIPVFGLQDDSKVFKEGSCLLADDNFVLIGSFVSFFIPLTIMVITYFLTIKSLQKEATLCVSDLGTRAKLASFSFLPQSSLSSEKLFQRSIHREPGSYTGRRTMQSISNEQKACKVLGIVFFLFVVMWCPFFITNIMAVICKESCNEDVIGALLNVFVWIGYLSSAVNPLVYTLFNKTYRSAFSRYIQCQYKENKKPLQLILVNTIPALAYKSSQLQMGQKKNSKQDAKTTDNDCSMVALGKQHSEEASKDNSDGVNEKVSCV

On to `COc1cc(CCN)c(OC)cc1Br`, for which the Ki came to 0.66 nM in assay [1] and 0.88 nM in assay [2]. Further, the EC50 in assay [3] is 27 nM.
Turning to `COc1cc(Br)c2c3c1[C@@H](CN)CCC[C@@H]3CO2` (racemic), the Ki in assay [1] worked out at 170 nM; in assay [2] it was 74 nM.
Turning to `COc1cc(Br)c2c3c1[C@H](CN)CCC[C@@H]3CO2` (racemic), the results for the Ki in assay [1] and in assay [2] were 200 nM and 170 nM, respectively.
As for `COc1cc(Br)c(OC)c2c1C(CN)CC2` (racemic), the Ki in assay [1] stood at 53 nM; in assay [2], 47 nM.
